Reference: PubChem BioAssay (NCI)
Where “and” joins values, the source holds several entries; their conditions need not be identical. Equal entries are not always repeated.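 Method: 48-hour compound exposure of cells in 96-well plates, five concentrations, linear interpolation of endpoints. GI50 = concentration required for 50% inhibition of growth. TGI is the concentration that stops growth completely.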

Each molecule was assayed on SK-MEL-2 melanoma (assay: NCI tumour cell line growth inhibition, 48 h).
In the case of `CC1C=C(CCCCCCCCCCCC[C@@H](O)[C@@H]2CC[C@@H]([C@@H]3CC[C@@H](C(O)CCCCCCCCCCCCC4=C[C@H](C)OC4=O)O3)O2)C(=O)O1` (some centres not stated), the TGI is reported as > 100 µM.
With `COc1cc([C@@H]2OCC3C(c4ccc5c(c4)OCO5)OCC32)cc(OC)c1OC` (some centres not stated) the TGI was > 100 µM.
With `N#CN=C(N(Cc1ccccc1)Cc1ccccc1)N(Cc1ccccc1)Cc1ccccc1` the TGI was > 100 µM.
`CNC(=O)C(C)C1CCC2(C)C=CC(=O)C(C)=C2C1O` (configuration not stated) was tested, and the TGI was > 100 µM.
With `C[n+]1c2ccccc2c(/C=N\NS(=O)(=O)c2ccc(O)c(C(=O)O)c2)c2ccccc21` the TGI was > 100 µM.
In the case of `O=C(Nc1ccc(C2=NCCN2)cc1)c1cncc(C(=O)Nc2ccc(C3=NCCN3)cc2)c1`, the TGI is reported as > 100 µM.
`CC(=O)Nc1ccc(-c2nnc(SCC(=O)Nc3ccc([N+](=O)[O-])cc3)o2)cc1` was tested, and the TGI was 33.3 µM.
`N.N.N.N.O=[N+]([O-])[O-].[Co+3].[N-]=[N+]=[N-].[N-]=[N+]=[N-]` was tested, and the TGI was > 100 µM.
`Cc1cc(=O)[nH]c(NN2C(Cl)C(=O)C2c2ccccc2O)n1` (configuration not stated) was tested, and the TGI was > 100 µM.
`CC(C)CCCCCCCCCCCCC(=O)NCC(=O)NC1C(C)OC(Nc2ncnc3c2ncn3C)C(O)C1O` (configuration not stated) was tested, and the TGI was > 100 µM.
For `Cc1c2cnccc2c(C)c2c1c1ccccc1n2CCCN`, the GI50 was 0.348 µM and the TGI was 1.59 µM and 1.42 µM.
`CCC12C=CCN3CCC4(C(=C(C(=O)OC)[C@@H]1O)Nc1ccccc14)C32` (some centres not stated) gave a TGI of 3.84 µM.
`O=C1CCC(=O)N1n1c(Cc2ccccc2)n[nH]c1=O` was tested, and the TGI was > 100 µM.
In the case of `O=C(O)CN(CC(=O)O)C1CCCCC1N(CC(=O)O)CC(=O)NCCN=C=S` (configuration not stated), the TGI is reported as > 100 µM.
In the case of `Oc1cc2c3c(c1)c1cc4c(cc1c[n+]3CC2)OCO4`, the TGI is reported as > 84.5 µM.
With `N=c1n(C(=O)N2CCCC2)c2cc(Cl)ccc2n1C1=NCCN1` the TGI was > 100 µM.
Molecule `COc1nc(N)c(C(=O)CCl)c(=O)n1C` has a TGI of 25.1 µM.
For `O=C1CCC23CC(C=CC=C12)n1c(=O)n(-c2ccccc2)c(=O)n13` (configuration not stated), the TGI was > 100 µM.
In the case of `[N-]=[N+]=Nc1cc(=O)oc2ccccc12`, the TGI is reported as > 100 µM.
For `CC(=O)NC1=C(NCCC(C)C)C(=O)c2ccccc2C1=O`, the TGI was > 50 µM.
`O=C([O-])CC(=O)[O-].O=C([O-])CC(=O)[O-].[K+].[Pd+2]` was tested, and the GI50 was > 100 µM and the TGI was > 100 µM.
With `C=C1c2nc3ccccc3n2C=C(c2ccccc2)N1c1ccc([N+](=O)[O-])cc1` the TGI was 56.3 µM.

These molecules were tested on HT29 colon (assay: NCI tumour cell line growth inhibition, 48 h).
With `CC1C=C(CCCCCCCCCCCC[C@@H](O)[C@@H]2CC[C@@H]([C@@H]3CC[C@@H](C(O)CCCCCCCCCCCCC4=C[C@H](C)OC4=O)O3)O2)C(=O)O1` (some centres not stated) the TGI was > 100 µM.
`COc1cc([C@@H]2OCC3C(c4ccc5c(c4)OCO5)OCC32)cc(OC)c1OC` (some centres not stated) was tested, and the TGI was > 100 µM.
With `N#CN=C(N(Cc1ccccc1)Cc1ccccc1)N(Cc1ccccc1)Cc1ccccc1` the TGI was > 100 µM.
`CNC(=O)C(C)C1CCC2(C)C=CC(=O)C(C)=C2C1O` (configuration not stated) was tested, and the TGI was > 100 µM.
`C[n+]1c2ccccc2c(/C=N\NS(=O)(=O)c2ccc(O)c(C(=O)O)c2)c2ccccc21` was tested, and the TGI was > 100 µM.
With `O=C(Nc1ccc(C2=NCCN2)cc1)c1cncc(C(=O)Nc2ccc(C3=NCCN3)cc2)c1` the TGI was > 100 µM.
Work on `CC(=O)Nc1ccc(-c2nnc(SCC(=O)Nc3ccc([N+](=O)[O-])cc3)o2)cc1` yielded a TGI of 27.3 µM.
`N.N.N.N.O=[N+]([O-])[O-].[Co+3].[N-]=[N+]=[N-].[N-]=[N+]=[N-]` was tested, and the TGI was > 100 µM.
With `Cc1cc(=O)[nH]c(NN2C(Cl)C(=O)C2c2ccccc2O)n1` (configuration not stated) the TGI was > 100 µM.
With `CC(C)CCCCCCCCCCCCC(=O)NCC(=O)NC1C(C)OC(Nc2ncnc3c2ncn3C)C(O)C1O` (configuration not stated) the TGI was > 100 µM.
`Cc1c2cnccc2c(C)c2c1c1ccccc1n2CCCN` was tested, and the GI50 was 0.0277 µM and the TGI was 1.01 µM and 0.292 µM.
`CCC12C=CCN3CCC4(C(=C(C(=O)OC)[C@@H]1O)Nc1ccccc14)C32` (some centres not stated) gave a TGI of 3.76 µM.
In the case of `O=C1CCC(=O)N1n1c(Cc2ccccc2)n[nH]c1=O`, the TGI is reported as > 100 µM.
`O=C(O)CN(CC(=O)O)C1CCCCC1N(CC(=O)O)CC(=O)NCCN=C=S` (configuration not stated) was tested, and the TGI was > 100 µM.
For `Oc1cc2c3c(c1)c1cc4c(cc1c[n+]3CC2)OCO4`, the TGI was > 42.2 µM.
With `N=c1n(C(=O)N2CCCC2)c2cc(Cl)ccc2n1C1=NCCN1` the TGI was > 100 µM.
For `COc1nc(N)c(C(=O)CCl)c(=O)n1C`, the TGI was 32.3 µM.
`O=C1CCC23CC(C=CC=C12)n1c(=O)n(-c2ccccc2)c(=O)n13` (configuration not stated) was tested, and the TGI was > 100 µM.
For `[N-]=[N+]=Nc1cc(=O)oc2ccccc12`, the TGI was > 100 µM.
With `CC(=O)NC1=C(NCCC(C)C)C(=O)c2ccccc2C1=O` the TGI was > 50 µM.
For `C=C1c2nc3ccccc3n2C=C(c2ccccc2)N1c1ccc([N+](=O)[O-])cc1`, the TGI was > 61.1 µM.

What follows are molecules tested on SW-620 colon (assay: NCI tumour cell line growth inhibition, 48 h).
In the case of `CC1C=C(CCCCCCCCCCCC[C@@H](O)[C@@H]2CC[C@@H]([C@@H]3CC[C@@H](C(O)CCCCCCCCCCCCC4=C[C@H](C)OC4=O)O3)O2)C(=O)O1` (some centres not stated), the TGI is reported as > 100 µM.
With `COc1cc([C@@H]2OCC3C(c4ccc5c(c4)OCO5)OCC32)cc(OC)c1OC` (some centres not stated) the TGI was > 100 µM.
In the case of `N#CN=C(N(Cc1ccccc1)Cc1ccccc1)N(Cc1ccccc1)Cc1ccccc1`, the TGI is reported as > 100 µM.
In the case of `CNC(=O)C(C)C1CCC2(C)C=CC(=O)C(C)=C2C1O` (configuration not stated), the TGI is reported as > 100 µM.
For `C[n+]1c2ccccc2c(/C=N\NS(=O)(=O)c2ccc(O)c(C(=O)O)c2)c2ccccc21`, the TGI was > 100 µM.
For `O=C(Nc1ccc(C2=NCCN2)cc1)c1cncc(C(=O)Nc2ccc(C3=NCCN3)cc2)c1`, the TGI was > 100 µM.
In the case of `CC(=O)Nc1ccc(-c2nnc(SCC(=O)Nc3ccc([N+](=O)[O-])cc3)o2)cc1`, the TGI is reported as 29.7 µM.
With `N.N.N.N.O=[N+]([O-])[O-].[Co+3].[N-]=[N+]=[N-].[N-]=[N+]=[N-]` the TGI was > 100 µM.
With `Cc1cc(=O)[nH]c(NN2C(Cl)C(=O)C2c2ccccc2O)n1` (configuration not stated) the TGI was > 100 µM.
`CC(C)CCCCCCCCCCCCC(=O)NCC(=O)NC1C(C)OC(Nc2ncnc3c2ncn3C)C(O)C1O` (configuration not stated) was tested, and the TGI was > 100 µM.
For `Cc1c2cnccc2c(C)c2c1c1ccccc1n2CCCN`, the GI50 was 0.035 µM and the TGI was 0.878 µM and 0.211 µM.
For `CCC12C=CCN3CCC4(C(=C(C(=O)OC)[C@@H]1O)Nc1ccccc14)C32` (some centres not stated), the TGI was 3.3 µM.
For `O=C1CCC(=O)N1n1c(Cc2ccccc2)n[nH]c1=O`, the TGI was > 100 µM.
With `O=C(O)CN(CC(=O)O)C1CCCCC1N(CC(=O)O)CC(=O)NCCN=C=S` (configuration not stated) the TGI was > 100 µM.
For `Oc1cc2c3c(c1)c1cc4c(cc1c[n+]3CC2)OCO4`, the TGI was > 36.6 µM.
With `N=c1n(C(=O)N2CCCC2)c2cc(Cl)ccc2n1C1=NCCN1` the TGI was > 100 µM.
With `COc1nc(N)c(C(=O)CCl)c(=O)n1C` the TGI was 28.5 µM.
For `O=C1CCC23CC(C=CC=C12)n1c(=O)n(-c2ccccc2)c(=O)n13` (configuration not stated), the TGI was > 100 µM.
`[N-]=[N+]=Nc1cc(=O)oc2ccccc12` was tested, and the TGI was > 100 µM.
`CC(=O)NC1=C(NCCC(C)C)C(=O)c2ccccc2C1=O` was tested, and the TGI was > 50 µM.
For `O=C([O-])CC(=O)[O-].O=C([O-])CC(=O)[O-].[K+].[Pd+2]`, the GI50 was > 100 µM and the TGI was > 100 µM.
`C=C1c2nc3ccccc3n2C=C(c2ccccc2)N1c1ccc([N+](=O)[O-])cc1` showed a TGI of 59 µM.

What follows are molecules tested on DMS 114 small cell lung (assay: NCI tumour cell line growth inhibition, 48 h).
For `CC1C=C(CCCCCCCCCCCC[C@@H](O)[C@@H]2CC[C@@H]([C@@H]3CC[C@@H](C(O)CCCCCCCCCCCCC4=C[C@H](C)OC4=O)O3)O2)C(=O)O1` (some centres not stated), the TGI was > 100 µM.
For `COc1cc([C@@H]2OCC3C(c4ccc5c(c4)OCO5)OCC32)cc(OC)c1OC` (some centres not stated), the TGI was > 100 µM.
In the case of `N#CN=C(N(Cc1ccccc1)Cc1ccccc1)N(Cc1ccccc1)Cc1ccccc1`, the TGI is reported as > 100 µM.
For `CNC(=O)C(C)C1CCC2(C)C=CC(=O)C(C)=C2C1O` (configuration not stated), the TGI was > 100 µM.
`C[n+]1c2ccccc2c(/C=N\NS(=O)(=O)c2ccc(O)c(C(=O)O)c2)c2ccccc21` was tested, and the TGI was > 100 µM.
In the case of `O=C(Nc1ccc(C2=NCCN2)cc1)c1cncc(C(=O)Nc2ccc(C3=NCCN3)cc2)c1`, the TGI is reported as > 100 µM.
`CC(=O)Nc1ccc(-c2nnc(SCC(=O)Nc3ccc([N+](=O)[O-])cc3)o2)cc1` was tested, and the TGI was 14.6 µM.
Molecule `Cc1cc(=O)[nH]c(NN2C(Cl)C(=O)C2c2ccccc2O)n1` (configuration not stated) has a TGI of 6.44 µM.
In the case of `CC(C)CCCCCCCCCCCCC(=O)NCC(=O)NC1C(C)OC(Nc2ncnc3c2ncn3C)C(O)C1O` (configuration not stated), the TGI is reported as > 100 µM.
In the case of `Cc1c2cnccc2c(C)c2c1c1ccccc1n2CCCN`, the TGI is reported as 1.02 µM.
Molecule `CCC12C=CCN3CCC4(C(=C(C(=O)OC)[C@@H]1O)Nc1ccccc14)C32` (some centres not stated) has a TGI of 3.24 µM.
`COc1nc(N)c(C(=O)CCl)c(=O)n1C` was tested, and the TGI was 33.9 µM.
In the case of `O=C1CCC23CC(C=CC=C12)n1c(=O)n(-c2ccccc2)c(=O)n13` (configuration not stated), the TGI is reported as > 100 µM.
In the case of `[N-]=[N+]=Nc1cc(=O)oc2ccccc12`, the TGI is reported as > 100 µM.

What follows are molecules tested on EKVX NSCLC (assay: NCI tumour cell line growth inhibition, 48 h).
With `CC1C=C(CCCCCCCCCCCC[C@@H](O)[C@@H]2CC[C@@H]([C@@H]3CC[C@@H](C(O)CCCCCCCCCCCCC4=C[C@H](C)OC4=O)O3)O2)C(=O)O1` (some centres not stated) the TGI was > 100 µM.
In the case of `COc1cc([C@@H]2OCC3C(c4ccc5c(c4)OCO5)OCC32)cc(OC)c1OC` (some centres not stated), the TGI is reported as > 100 µM.
With `N#CN=C(N(Cc1ccccc1)Cc1ccccc1)N(Cc1ccccc1)Cc1ccccc1` the TGI was > 100 µM.
For `CNC(=O)C(C)C1CCC2(C)C=CC(=O)C(C)=C2C1O` (configuration not stated), the TGI was > 100 µM.
With `C[n+]1c2ccccc2c(/C=N\NS(=O)(=O)c2ccc(O)c(C(=O)O)c2)c2ccccc21` the TGI was > 100 µM.
For `O=C(Nc1ccc(C2=NCCN2)cc1)c1cncc(C(=O)Nc2ccc(C3=NCCN3)cc2)c1`, the TGI was > 100 µM.
With `N.N.N.N.O=[N+]([O-])[O-].[Co+3].[N-]=[N+]=[N-].[N-]=[N+]=[N-]` the TGI was > 100 µM.
`Cc1cc(=O)[nH]c(NN2C(Cl)C(=O)C2c2ccccc2O)n1` (configuration not stated) was tested, and the TGI was > 75.1 µM.
`CC(C)CCCCCCCCCCCCC(=O)NCC(=O)NC1C(C)OC(Nc2ncnc3c2ncn3C)C(O)C1O` (configuration not stated) was tested, and the TGI was > 100 µM.
In the case of `Cc1c2cnccc2c(C)c2c1c1ccccc1n2CCCN`, the GI50 is reported as 0.153 µM and the TGI is reported as 1.37 µM and 0.506 µM.
With `CCC12C=CCN3CCC4(C(=C(C(=O)OC)[C@@H]1O)Nc1ccccc14)C32` (some centres not stated) the TGI was 3.92 µM.
For `O=C1CCC(=O)N1n1c(Cc2ccccc2)n[nH]c1=O`, the TGI was > 100 µM.
